Measured values: US6881844B2, “Indole-3-carboxamides as glucokinase activators” (Hoffman-La Roche Inc., priority 2002, dated 2005)

SMILES	melting point [°C]
CCn1cc(C(=O)Nc2nccs2)c2ccc(Cl)cc21	234 to 236
CCCn1cc(C(=O)Nc2nccs2)c2ccc(Cl)cc21	175 to 176
CCCCn1cc(C(=O)Nc2nccs2)c2ccc(Cl)cc21	168 to 169
CC(C)Cn1cc(C(=O)Nc2nccs2)c2ccc(Cl)cc21	200 to 202
CCCCCn1cc(C(=O)Nc2nccs2)c2ccc(Cl)cc21	139 to 141
CC(C)CCn1cc(C(=O)Nc2nccs2)c2ccc(Cl)cc21	179 to 180
O=C(Nc1nccs1)c1cn(CC2CC2)c2cc(Cl)ccc12	185 to 187
O=C(Nc1nccs1)c1cn(CC2CCC2)c2cc(Cl)ccc12	169 to 173
O=C(Nc1nccs1)c1cn(CC2CCCC2)c2cc(Cl)ccc12	117 to 119
CC(C)n1cc(C(=O)Nc2nccs2)c2ccc(C(F)(F)F)cc21	246 to 247
O=C(Nc1nccs1)c1cn(CC2CCCCC2)c2cc(Cl)ccc12	181 to 183
CC(C)n1cc(C(=O)Nc2nccs2)c2ccc([N+](=O)[O-])cc21	236 to 239
CC(C)n1cc(C(=O)Nc2nccs2)c2ccc(O)cc21	239 to 241
COc1ccc2c(C(=O)Nc3nccs3)cn(C(C)C)c2c1	182 to 185
CSc1ccc2c(C(=O)Nc3nccs3)cn(C(C)C)c2c1	172 to 176
CC(C)n1cc(C(=O)Nc2nccs2)c2ccc(S(C)(=O)=O)cc21	247 to 249

More lines, now with the values ahead:

melting point [°C]	SMILES
215 to 217	Cc1ccc2c(C(=O)Nc3nccs3)cn(C(C)C)c2c1
202 to 204	CC(C)n1cc(C(=O)Nc2nccs2)c2ccc(Cl)cc21
274 to 275	CC(C)n1cc(C(=O)Nc2nncs2)c2ccc(Cl)cc21
216 to 219	Cc1cnc(NC(=O)c2cn(C(C)C)c3cc(Cl)ccc23)s1
201 to 203	Cc1csc(NC(=O)c2cn(C(C)C)c3cc(Cl)ccc23)n1
252 to 253	CC(C)n1cc(C(=O)Nc2ncc(Cl)s2)c2ccc(Cl)cc21
240 to 242	CC(C)n1cc(C(=O)Nc2ncc(Br)s2)c2ccc(Cl)cc21
65 to 75	CCOC(=O)Cc1csc(NC(=O)c2cn(C(C)C)c3cc(Cl)ccc23)n1
149 to 150	CC(C)n1cc(C(=O)Nc2ccccn2)c2ccc(Cl)cc21
132 to 134	Cc1ccc(NC(=O)c2cn(C(C)C)c3cc(Cl)ccc23)nc1
179 to 181	CC(C)n1cc(C(=O)Nc2ccc(C(F)(F)F)cn2)c2ccc(Cl)cc21
131 to 134	CC(C)n1cc(C(=O)Nc2ccc(Cl)cn2)c2ccc(Cl)cc21
57 to 64	CC(C)n1cc(C(=O)Nc2ccc(Br)cn2)c2ccc(Cl)cc21
203 to 204	CC(C)n1cc(C(=O)Nc2nccs2)c2ccc(F)cc21
205 to 207	CC(C)n1cc(C(=O)Nc2nccs2)c2ccc(Br)cc21
